# Results taken from article PMC12637173, “Investigation on LASSBio‐1971 and LASSBio‐1974 Cellular Cytotoxic Mechanism and Their Comparative DMPK Profile” (Archiv Der Pharmazie, 2025).
# Read-outs that look alike come from different tables or passages of the source.
# Key:
# PC‐9 (EGFRL858R) [1] = experiment: Apoptosis by flow cytometry (Muse Annexin V & Dead Cell Kit); assay type: cell-based, human; conditions: PC‐9, 72 h
# Method: (§1) PC‐9 (EGFRL858R) cell line was seeded at 1 × 10^5 cells/well in a 24‐well plate. […] All flow cytometry assays were performed using Guava Muse Cell Analyzer (Cytek Biosciences) following each kit user's guide provided by the manufacturer. Muse Cell Cycle Kit (catalog no. MCH100106) was chosen to evaluate cell cycle arresting. Apoptosis features were evaluated using Muse Annexin V & Dead Cell Kit (catalog no. MCH100105), as well as inactivation of EGFR using Muse EGFR‐RTK Activation Dual Detection Kit (catalog no. MCH200102). Statistical analysis was performed using one‐way ANOVA on data collected in duplicate from at least two independent experiments (n ≥ 2), employing GraphPad Prism software (version 8.0).
# EGFR in PC‐9 (EGFRL858R) = experiment: EGFR activation by flow cytometry (Muse EGFR‐RTK Activation Dual Detection Kit); assay type: cell-based, human
# Method: as §1
# PC‐9 (EGFRL858R) [2] = experiment: Cell viability by MTT assay, PC-9; conditions: for IC50: read-out: cytotoxic activity, PC-9 (EGFRL858R)
# NCI‐H292 (EGFRwt) [3] = experiment: Cell viability by MTT assay, NCI-H292; conditions: Homo sapiens
# [4] = tested on: NCI‐H1975 (EGFRL858R/T790M); experiment: Cell viability by MTT assay, NCI-H1975; conditions: Homo sapiens; for IC50: read-out: cytotoxic activity, NCI-H1975 (EGFRL858R/T790M)
# PC‐9 (EGFRL858R) [5] = experiment: Cell viability by sulforhodamine B (SRB) assay, PC-9; conditions: Homo sapiens, 72 h, read-out: cytotoxic activity CC50, PC‐9 (EGFRL858R)
# NCI‐H292 (EGFRwt) [6] = experiment: Cell viability by sulforhodamine B (SRB) assay, NCI-H292; conditions: Homo sapiens, NCI-H292, 72 h, read-out: cytotoxic activity CC50, NCI‐H292 (EGFRwt)
# PAMPA‐GIT = assay type: in vitro ADME; conditions: PAMPA-GIT
# Method: The lipid mixture that impregnates the filter has a different constitution for the permeability tests for the BBB (brain lipid from pig extract in n‐dodecane) and the GIT (L‐α soy phosphatidylcholine in n‐dodecane). The optical density values obtained in the reading at each selected wavelength, for each of the compounds, were analyzed in comparison with the values of several controls within a calibration curve (≥ 7 drugs). In the case of the BBB, these values were used to elaborate an equation and determine the permeability coefficient (Pe), while GIT used absorbed fraction (Fa%).
# [7] = PAMPA-GIT, standard drugs; literature value, ref not given; cited from earlier work
smiles,measurement,setting,value
"C=CC(=O)Nc1cc(Nc2nccc(-c3cn(C)c4ccccc34)n2)c(OC)cc1N(C)CCN(C)C [Osimertinib, osimertinib, reference compound]",increase in the population of cells undergoing apoptosis,PC‐9 (EGFRL858R) [1]; at their CC50,approximately 10%
same,inhibition of phosphorylation and activation of EGFR,EGFR in PC‐9 (EGFRL858R),inhibited phosphorylation
same,IC50,"PC‐9 (EGFRL858R) [2]; Homo sapiens, 24 h",8.32 µM
same,IC50,"PC‐9 (EGFRL858R) [2]; Homo sapiens, 48 h",0.17 µM
same,CC50,"PC‐9 (EGFRL858R) [2]; Homo sapiens, 72 h, read-out: cytotoxic activity CC50, PC‐9 (EGFRL858R)",0.05 µM
same,IC50,"NCI‐H292 (EGFRwt) [3]; NCI-H292, 48 h, read-out: cytotoxic activity, NCI-H292 (EGFRw.t.)",6.81 µM
same,CC50,"NCI‐H292 (EGFRwt) [3]; NCI-H292, 72 h, read-out: cytotoxic activity CC50, NCI‐H292 (EGFRwt)",6.3 µM
same,CC50,PC‐9 (EGFRL858R) [5],0.07 µM
same,CC50,NCI‐H292 (EGFRwt) [6],6.86 µM
CNC(=C[N+](=O)[O-])NCCSCc1ccc(CN(C)C)o1 [Ranitidine],Classification,PAMPA‐GIT; standard drugs used as control,Medium (medium permeability (30%–69%))
same,Fa exp.,PAMPA‐GIT; standard drugs used as control (n = 2),38.29%
same,Papp,"PAMPA‐GIT; standard drugs used as control (n = 2), read-out: Pe experimental",3 nm/s
O=C(O)c1cc(/N=N/c2ccc(S(=O)(=O)Nc3ccccn3)cc2)ccc1O [Sulfasalazine],Fa lit.,[7],42%
same,Pe literature,[7],0.30 10^-6 cm s^-1
"COc1ccc(/C=C\c2cc(OC)c(OC)c(OC)c2)cc1O [combretastatin A4, reference compound]","phosphatidylserine externalization and cell membrane permeabilization, share of the NSCLC cell population","PC‐9 (EGFRL858R) [1]; LASSBio‐1974 10 µM, CA‐4 0.1 µM",~60%
same,CC50,"PC‐9 (EGFRL858R) [2]; read-out: CC50 stated in figure legend, PC‐9, CC50 given as concentration used in flow cytometry, assay and time not stated",0.1 µM
